Results on 34 compounds are retold here after patent publication US7705030B2, “Amino-5-(5-membered)hetero-arylimidazolone compounds and the use thereof for β-secretase modulation” (Wyeth LLC, priority 2005, dated 2010).

Each structure is given as a SMILES string.

One data set deals with human BACE1 (Homo sapiens, UniProt P56817). Briefly: Fluorescent kinetic assay: Evaluation of BACE-1 Binding Affinity of Test Compounds. The class given is biochemical. The conditions noted are these: 10 nM enzyme, 25 μM substrate WABC-6, 50 mM Na-Acetate pH 4.5, room temperature. As for the experimental part: Evaluation of BACE-1 Binding Affinity of Test Compounds
Sequence of human BACE1 (P56817 46-501): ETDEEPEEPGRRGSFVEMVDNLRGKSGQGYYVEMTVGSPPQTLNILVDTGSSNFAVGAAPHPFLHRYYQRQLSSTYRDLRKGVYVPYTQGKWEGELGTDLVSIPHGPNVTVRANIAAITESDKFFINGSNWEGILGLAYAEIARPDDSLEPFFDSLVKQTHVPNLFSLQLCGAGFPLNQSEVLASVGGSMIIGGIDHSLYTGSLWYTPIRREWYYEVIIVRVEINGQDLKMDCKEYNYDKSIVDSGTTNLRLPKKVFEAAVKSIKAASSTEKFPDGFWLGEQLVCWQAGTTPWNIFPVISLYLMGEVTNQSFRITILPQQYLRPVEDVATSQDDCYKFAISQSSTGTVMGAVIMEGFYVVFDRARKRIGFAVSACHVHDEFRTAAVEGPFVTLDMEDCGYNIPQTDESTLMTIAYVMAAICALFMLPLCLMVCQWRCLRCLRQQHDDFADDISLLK
Fluorescent Kinetic Assays
Final Assay Conditions: 10 nM human BACE1 (or 10 nM Murine BACE1, 1.5 nM human BACE2), 25 μM substrate (WABC-6, MW 1549.6, from AnaSpec), Buffer: 50 mM Na-Acetate, pH 4.5, 0.05% CHAPS, 25% PBS, room temperature. Na-Acetate was from Aldrich, Cat.# 24, 124-5, CHAPS was from Research Organics, Cat. # 1304C 1×, PBS was from Mediatech (Cellgro), Cat# 21-031-CV, peptide substrate Abz[…]pa was from AnaSpec, Peptide Name: WABC-6 Determination of stock substrate (Abz[…]pa) concentration: ˜25 mM stock solution is made in DMSO using the peptide weight and MW, and diluted to ˜25 μM (1:1000) in 1×PBS. Concentration is determined by absorbance at 354 nm using an extinction coefficient ε of 18172 M^−1 cm^−1, the concentration of stock substrate is corrected, and the substrate stock stored in small aliquots in −80° C. [Substrate Stock]=ABS^354 nm*10^6/18172 (in […]) The extinction coefficient ε^354 nm was adapted from TACE peptide substrate, which had the same quencher-fluorophore pair.
Determination of Stock Enzyme Concentration: the stock concentration of each enzyme is determined by absorbance at 280 nm using an ε of 64150 M^−1 cm^−1 for hBACE1 and MuBACE1, 62870 M^−1 cm^−1 for hBACE2 in 6 M Guanidinium Hydrochloride (from Research Organics, Cat. # 5134G-2), pH ˜6. The extinction coefficient ε^280 nm for each enzyme was calculated based on known amino acid composition and published extinction coefficients for Trp ([…]) and Tyr ([…]) residues (Anal. Biochem. 182, 319-326).
Dilution and mixing steps: total reaction volume: 100 μL
2× inhibitor dilutions in buffer A(66.7 mM Na-Acetate, pH 4.5, 0.0667% CHAPS) were prepared,
4× enzyme dilution in buffer A(66.7 mM Na-Acetate, pH 4.5, 0.0667% CHAPS) were prepared,
100 μM substrate dilution in 1×PBS was prepared, and
50 μL 2× Inhibitor, 25 μL 100 μM substrate are added to each well of 96-well plate (from DYNEX Technologies, VWR #: 11311-046), immediately followed by 25 μL 4× enzyme (added to the inhibitor and substrate mix), and the fluorescence readings are initiated.
Fluorescence Readings: Readings at λex 320 nm and λem 420 nm are taken every 40 sec for 30 min at room temperature and the linear slope for substrate cleavage rate (vi) determined.
Testing at least 10 different inhibitor concentrations is preferred.

With `CCCn1cc(C2(c3cccc(-c4cccnc4F)c3)N=C(N)N(C)C2=O)cc1C(=O)CC` (centres unmarked) [Example 149, 2-Amino-5-[3-(2-fluoropyridin-3-yl)phenyl]-3-methyl-5-(5-propionyl-1-propyl-1H-pyrrol-3-yl)-3,5-dihydro-4H-imidazol-4-one], the melting point was determined as 118 °C. For the same compound, on human BACE1, the IC50 is 10 to 100 nM.

With `CN1C(=O)C(c2cccc(-c3cccnc3F)c2)(c2cnn(CCC3CCCCC3)c2)N=C1N` (centres unmarked) [Example 104], the melting point lay within 88 to 90 °C. In addition, the IC50 at human BACE1 fell in the range of 10 to 100 nM.

Consider `CN1C(=O)C(c2cccc(OCC3CC3)c2)(c2cnn(CCF)c2)N=C1N` (centres unmarked) [Example 70, 2-amino-5-[3-(cyclopropylmethoxy)phenyl]-5-[1-(2-fluoroethyl)-1H-pyrazol-4-yl]-3-methyl-3,5-dihydro-4H-imidazol-4-one], for which the melting point lay in the range of 70 to 72 °C. The compound also came in with an IC50 at human BACE1 of 110 to 1000 nM.

`CCC(O)c1cc(C2(c3cccc(-c4cccnc4F)c3)N=C(N)N(C)C2=O)cn1CC` (centres unmarked) [Example 240, 2-Amino-5-[1-ethyl-5-(1-hydroxypropyl)-1H-pyrrol-3-yl]-5-[3-(2-fluoropyridin-3-yl)phenyl]-3-methyl-3,5-dihydro-4H-imidazol-4-one] displayed a melting point of 115 to 121 °C. Besides, on human BACE1, the IC50 fell in the range of 110 to 1000 nM.

In the case of `CCC(=O)c1cc(C2(c3cccc(-c4cccc(C#N)c4)c3)N=C(N)N(C)C2=O)cn1CC(F)(F)F` (centres unmarked) [Example 206], the melting point lay in the range of 112 to 114 °C. This compound gave an IC50 on human BACE1 of 10 to 100 nM.

For `CN1C(=O)C(c2cccc(-c3cccnc3F)c2)(c2cc(C#N)n(C)c2)N=C1N` (centres unmarked) [Example 226], the melting point lay in the range of 213 to 220 °C. Moreover, the IC50 at human BACE1 lay within 110 to 1000 nM.

For the compound `CCC(=O)c1cc(C2(c3ccc(F)c(-c4cccnc4F)c3)N=C(N)N(C)C2=O)cn1CC(F)(F)F` (centres unmarked) [Example 207], the melting point fell in the range of 122 to 124 °C. On human BACE1, the IC50 fell in the range of 10 to 100 nM.

`CCn1cc(C2(c3cccc(-c4cccnc4F)c3)N=C(N)N(C)C2=O)cc1C(=O)N1CCOCC1` (centres unmarked) [Example 164] yielded a melting point of 108 to 109 °C. The same compound yielded an IC50 on human BACE1 of 10 to 100 nM.

The compound `CCC(=O)c1cc(C2(c3cccc(-c4cccnc4F)c3)N=C(N)N(C)C2=O)cn1C` (centres unmarked) [Example 180] came in with a melting point of 107 to 111 °C. The compound further displayed an IC50 at human BACE1 of 10 to 100 nM.

With `COC(=O)c1cc(C2(c3cccc(-c4cc(F)ccc4F)c3)N=C(N)N(C)C2=O)cn1CCF` (centres unmarked) [Example 192], the melting point lay in the range of 166 to 170 °C. This compound also gave an IC50 at human BACE1 of 10 to 100 nM.

`COc1cncc(-c2cccc(C3(c4ccsc4)N=C(N)N(C)C3=O)c2)c1` (centres unmarked) [Example 37] had a melting point of 197 °C. In addition, the half-maximal inhibitory concentration (IC50) at human BACE1 fell in the range of 10 to 100 nM.

For the compound `CN(C)Cc1cc(C2(c3cccc(-c4cccnc4F)c3)N=C(N)N(C)C2=O)cn1CCF` (centres unmarked) [Example 238], the melting point is 118 to 121 °C. The compound also came in with an IC50 at human BACE1 of 110 to 1000 nM.

In turn, `CN1C(=O)C(c2ccsc2)(c2cccc(OCC3CCCCC3)c2)N=C1N` (centres unmarked) [Example 147] returned a melting point of 88 to 90 °C. The IC50 at human BACE1 is > 1000 nM.

`CCn1cc(C2(c3ccc(F)c(-c4cccnc4F)c3)N=C(N)N(C)C2=O)cn1` (centres unmarked) [Example 10, 2-Amino-5-(1-ethyl-1H-pyrazol-4-yl)-5-[4-fluoro-3-(2-fluoropyridin-3-yl)phenyl]-3-methyl-3,5-dihydro-4H-imidazol-4-one] gave a melting point of 84 to 85 °C. Moreover, at human BACE1, the IC50 lay in the range of 10 to 100 nM.

Compound `CCC(=O)c1cc(C2(c3cccc(-c4cccnc4F)c3)N=C(N)N(C)C2=O)cn1CC(F)(F)F` (centres unmarked) [Example 200, 2-Amino-5-[5-propionyl-1-(2,2,2-trifluoroethyl)-1H-pyrrol-3-yl]-5-[3-(2-fluoropyridin-3-yl)phenyl]-3-methyl-3,5-dihydro-4H-imidazol-4-one] registered a melting point of 108 to 110 °C. The compound further had an IC50 on human BACE1 of 10 to 100 nM.

For `CN1C(=O)C(c2cccc(-c3cc(C#N)ccc3F)c2)(c2cnn(CC(F)(F)F)c2)N=C1N` (centres unmarked) [Example 86], the melting point lay within 118 to 120 °C. This compound returned an IC50 at human BACE1 of 110 to 1000 nM.

In turn, `CCC(=O)c1cc(C2(c3cccc(-c4cccnc4F)c3)N=C(N)N(C)C2=O)cn1Cc1cscn1` (centres unmarked) [Example 182] had a melting point of 116 to 120 °C. In addition, the IC50 on human BACE1 is 10 to 100 nM.

Consider `CC(C)CCn1cc(C2(c3cccc(-c4cncnc4)c3)N=C(N)N(C)C2=O)cn1` (centres unmarked) [Example 108], for which the melting point fell in the range of 87 to 90 °C. On human BACE1, this compound showed an IC50 of 10 to 100 nM.

`CCC(=O)c1cc(C2(c3cccc(-c4cccnc4F)c3)N=C(N)N(C)C2=O)cn1CCF` (centres unmarked) [Example 167] showed a melting point of 100 °C. On human BACE1, this compound came in with an IC50 of 10 to 100 nM.

Compound `CN1C(=O)C(c2cccc(-c3cncnc3)c2)(c2ccn(CC(F)(F)F)c2)N=C1N` (centres unmarked) [Example 54] came in with a melting point of 103 to 105 °C. Besides, on human BACE1, the IC50 lay within 110 to 1000 nM.

`CCCn1cc(C2(c3cccc(-c4cncnc4)c3)N=C(N)N(C)C2=O)cc1C#N` (centres unmarked) [Example 229] had a melting point of 165 to 166 °C. Also, the IC50 at human BACE1 was in the range of 10 to 100 nM.

`CCC(=O)c1cc(C2(c3cccc(-c4cccnc4F)c3)N=C(N)N(C)C2=O)cn1CCCCF` (centres unmarked) [Example 178] registered a melting point of 105 °C. This compound registered an IC50 at human BACE1 of 10 to 100 nM.

`Cc1c(C2(c3cccc(-c4cccnc4F)c3)N=C(N)N(C)C2=O)cnn1CC(F)(F)F` (centres unmarked) [Example 2, 2-Amino-5-[3-(2-fluoropyridin-3-yl)phenyl]-3-methyl-5-[5-methyl-1-(2,2,2-trifluoroethyl)-1H-pyrazol-4-yl]-3,5-dihydro-4H-imidazol-4-one] showed a melting point of 235 to 238 °C. At human BACE1, this compound came in with an IC50 of 110 to 1000 nM.

In turn, `CCn1cc(C2(c3cccc(-c4cccnc4F)c3)N=C(N)N(C)C2=O)cc1C(=O)N1CCCCC1` (centres unmarked) [Example 163] showed a melting point of 111 to 113 °C. On human BACE1, this compound displayed an IC50 of 10 to 100 nM.

Consider `COc1ccc(F)cc1-c1cccc(C2(c3cnn(CC(F)(F)F)c3)N=C(N)N(C)C2=O)c1` (centres unmarked) [Example 85], for which the melting point lay within 104 to 106 °C. The compound also had a 50% inhibitory concentration (IC50) on human BACE1 of 110 to 1000 nM.

As for `CCC(CC)Cn1cc(C2(c3cccc(-c4cccnc4F)c3)N=C(N)N(C)C2=O)cn1` (centres unmarked) [Example 99], the melting point was in the range of 75 to 80 °C. In addition, the IC50 on human BACE1 lay in the range of 10 to 100 nM.

`CN1C(=O)C(c2cccc(-c3cccnc3)c2)(c2cnn(CC(F)(F)F)c2)N=C1N` (centres unmarked) [Example 88] yielded a melting point of 202 to 204 °C. Also, the IC50 at human BACE1 fell in the range of 110 to 1000 nM.

Turning to `CCCCn1cc(C2(c3cccc(-c4cccnc4F)c3)N=C(N)N(C)C2=O)cn1` (centres unmarked) [Example 4, 2-Amino-5-(1-butyl-1H-pyrazol-4-yl)-5-[3-(2-fluoropyridin-3-VI)phenyl]-3-methyl-3,5-dihydro-4H-imidazol-4-one], the melting point was in the range of 88 to 92 °C. The compound also gave an IC50 at human BACE1 of 10 to 100 nM.

`CC(C)CCOc1cccc(C2(c3ccsc3)N=C(N)N(C)C2=O)c1` (centres unmarked) [Example 144] displayed a melting point of 84 to 88 °C. Also, the IC50 at human BACE1 lay within 110 to 1000 nM.

Take `CC(C)CCn1cc(C2(c3cccc(-c4cccnc4F)c3)N=C(N)N(C)C2=O)cn1` (centres unmarked) [Example 102]: the melting point was in the range of 86 to 90 °C. This compound also displayed an IC50 on human BACE1 of 10 to 100 nM.

In the case of `CN1C(=O)C(c2cccc(-c3cncnc3)c2)(c2cscn2)N=C1N` (centres unmarked) [Example 41, 2-Amino-3-methyl-5-(3-pyrimidin-5-ylphenyl)-5-(1,3-thiazol-4-yl)-3,5-dihydro-4H-imidazol-4-one], the melting point fell in the range of 234 to 237 °C. On human BACE1, this compound showed an IC50 of 110 to 1000 nM.

`CCC(=O)c1cc(C2(c3cccc(-c4cc(F)cc(F)c4)c3)N=C(N)N(C)C2=O)cn1CC(F)(F)F` (centres unmarked) [Example 203] returned a melting point of 104 to 106 °C. At human BACE1, this compound yielded an IC50 of 10 to 100 nM.

With `COC(=O)c1cc(C2(c3cccc(-c4cc(F)cc(F)c4)c3)N=C(N)N(C)C2=O)cn1CCF` (centres unmarked) [Example 193], the melting point lay within 173 to 176 °C. The IC50 on human BACE1 lay within 10 to 100 nM.

`CC(C)Cn1cc(C2(c3cccc(-c4cncnc4)c3)N=C(N)N(C)C2=O)cn1` (centres unmarked) [Example 5, 2-Amino-5-(1-isobutyl-1H-pyrazol-4-yl)-3-methyl-5-(3-pyrimidin-5-ylphenyl)-3,5-dihydro-4H-imidazol-4-one] came in with a melting point of 118 to 122 °C. At human BACE1, this compound returned an IC50 of 10 to 100 nM.
